Measured values published in US11434204B2, “Method for producing a polymorphic form of 3-[5-amino-4-(3-cyanobenzoyl)-pyrazol-1-yl]-N-cyclopropyl-4-methylbenzamide” (MEREO BIOPHARMA 1 LIMITED, priority 2016, dated 2022).
Values belong to the molecule of their own block, whether it stands above or below them.

What was measured:
Format in all cases: physicochemical
[1] = Variable temperature XRPD of Form A
Method: The sample was placed in Anton-Paar TTK 450 chamber at 25° C. The temperature was controlled in-situ through the measurement files: p2853-vt, LRP-1301-39-01.dql, LRP-1301-42-01.dql, LRP-1301-42-02.dql. The sample was heated from 25° C. to 200° C. at 1° C./min. XRPD data were collected from 30° C. to 200° C. every 10° C. Approximately 40 mg of the sample was placed in a Ni-coated sample holder under ambient conditions. The sample was loaded at 25° C.
At 200° C., changes (shifts) in peak position in the high 2-theta region were observed. This may be attributed to the thermal expansion effect.

[2] = Hygroscopicity (statement, method not given)
[3] = Final polymorph after holding in different solvents at different temperatures
Method: Thus, preferably the solution of 3-[5-amino-4-(3-cyanobenzoyl)-pyrazol-1-yl]-N-cyclopropyl-4-methylbenzamide is not exposed to temperatures of greater than 70° C. for more than 24 hours, preferably not more than 12 hours, preferably not more than 6 hours.
Thus, it can be seen that at the higher temperatures of 70 and 80° C., conversion to Form B is effected, or a mixture of Form A and Form B are produced, particularly over longer periods of time. It can also be seen that the hydrate is formed when water is included in the solvent.

Solid form by XRPD after cooling to room temperature ([1]; after heating to 200° C.): remained unchanged
SMILES: Cc1ccc(C(=O)NC2CC2)cc1-n1ncc(C(=O)c2cccc(C#N)c2)c1N [Form B, 3-[5-amino-4-(3-cyanobenzoyl)-pyrazol-1-yl]-N-cyclopropyl-4-methylbenzamide]

Temperature above which Form A converted to Form B on heating ([1]; variable temperature XRPD, heated from 25° C. to 200° C. at 1° C./min): above 100 °C | Hygroscopicity [2]: non-hygroscopic
SMILES: Cc1ccc(C(=O)NC2CC2)cc1-n1ncc(C(=O)c2cccc(C#N)c2)c1N [Form A, 3-[5-amino-4-(3-cyanobenzoyl)-pyrazol-1-yl]-N-cyclopropyl-4-methylbenzamide]

Final polymorph ([3]; 60° C., DMAC/H2O = 1/1, 1 day): hydrate | Final polymorph ([3]; 60° C., H2O, 1 day): hydrate | Final polymorph ([3]; 70° C., EtOH, 3 days): A + B | Final polymorph ([3]; 70° C., n-PrOH, 3 days): A + B
SMILES: Cc1ccc(C(=O)NC2CC2)cc1-n1ncc(C(=O)c2cccc(C#N)c2)c1N [3-[5-amino-4-(3-cyanobenzoyl)-pyrazol-1-yl]-N-cyclopropyl-4-methylbenzamide]
